Results reported in paper PMC7504721, “Targeting the Initiator Protease of the Classical Pathway of Complement Using Fragment-Based Drug Discovery” (Molecules, 2020).

Biological target: T1, full-length C1r (Homo sapiens, UniProt P00736)
T1 construct: purchased Complement Technology (CompTech)
T1 sequence (P00736 18-463 limits assumed): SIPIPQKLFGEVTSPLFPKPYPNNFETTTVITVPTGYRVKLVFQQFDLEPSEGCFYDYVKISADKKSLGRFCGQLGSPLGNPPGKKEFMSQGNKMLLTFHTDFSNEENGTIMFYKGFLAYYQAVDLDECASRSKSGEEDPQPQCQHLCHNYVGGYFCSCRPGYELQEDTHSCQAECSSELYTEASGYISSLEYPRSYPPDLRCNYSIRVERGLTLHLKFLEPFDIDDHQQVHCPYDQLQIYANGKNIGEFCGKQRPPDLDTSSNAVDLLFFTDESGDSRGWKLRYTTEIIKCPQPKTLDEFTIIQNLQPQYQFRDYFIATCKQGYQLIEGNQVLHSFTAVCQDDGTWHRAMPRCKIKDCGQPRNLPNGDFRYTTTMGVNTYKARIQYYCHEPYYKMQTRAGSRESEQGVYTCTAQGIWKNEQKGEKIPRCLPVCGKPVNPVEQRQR
T1 sequence (P00736 464-705 limits assumed): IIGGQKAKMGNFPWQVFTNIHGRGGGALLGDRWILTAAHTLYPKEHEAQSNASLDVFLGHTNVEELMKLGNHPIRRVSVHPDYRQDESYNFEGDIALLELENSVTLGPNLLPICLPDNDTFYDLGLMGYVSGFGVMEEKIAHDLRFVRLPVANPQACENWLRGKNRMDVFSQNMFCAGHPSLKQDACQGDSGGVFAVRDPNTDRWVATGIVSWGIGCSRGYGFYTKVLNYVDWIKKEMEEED
Assay: SPR domain mapping, full-length C1r surface
Type: binding
Details: duplicate
Excerpt: Figure 5 Selectivity and mechanistic analysis of CMP-1611 and CMP-1696. (A) Chemical structure of CMP-1611. (B) Chemical structure of CMP-1696. (C) Dose-dependent inhibition by CMP-1611 and CMP-1696 in a classical pathway-specific ELISA. Data were fit with GraphPad Prism using non-linear regression with a log(inhibitor) vs. response model. […] The CMP-778 inhibitory response could not be fit to a dose-response inhibition model. (D) Complement pathway selectivity of CMP-1611 and CMP-1696. Compounds were assessed for their ability to inhibit activation of complement via the lectin and alternative pathways using single doses of 500 μM compound in triplicate. To ensure only lectin pathway activation, 2% (v/v) C1q-depleted serum (CompTech) was used and mannan was used as the activator. To match serum sources and amounts for this assay, the classical pathway assays were repeated here using serum from CompTech at 2% (v/v) final concentration. Alternative pathway activation assays were performed using 20% (v/v) serum (CompTech), alternative pathway buffers, and C3b detection (see Methods and Materials for details). […] We then injected each compound simultaneously over the three surfaces at 500 μM and measured binding responses. […] All sensorgrams were reference and blank subtracted and analyzed using T200 Evaluation Software (GE Healthcare, Chicago, IL, USA).

Row | relative SPR binding response, full-length C1r (500 µM compound) | relative SPR binding response, full-length C1r (10 µM Futhan) | SMILES
1 | high binding | – | COCc1nc(-c2ccc(OC3CNC3)cc2)no1 [CMP-1696]
2 | – | bound C1r and C1r-CCP2-SP similarly | N=C(N)c1ccc2cc(OC(=O)c3ccc(N=C(N)N)cc3)ccc2c1 [Futhan, reference compound]
